ChEMBL document CHEMBL4007482, “Evaluation of anti-diabetic effect and gall bladder function with 2-thio-5-thiomethyl substituted imidazoles as TGR5 receptor agonists” (Bioorg Med Chem Lett, 2017)

Legend:
Format in all cases: ADME, organism-based
[1] = Volume of distribution at steady state in C57BL/6J mouse at 5 mg/kg, iv by LC-MS/MS analysis; settings: in vivo, read-out: Vdss
[2] = Half life in C57BL/6J mouse at 5 mg/kg, iv by LC-MS/MS analysis; settings: in vivo
[3] = Oral bioavailability in C57BL/6J mouse at 20 mg/kg via gavage by LC-MS/MS analysis; settings: in vivo
[4] = Tmax in C57BL/6J mouse at 20 mg/kg, po via gavage by LC-MS/MS analysis; settings: in vivo
[5] = AUC (0 to infinity) in C57BL/6J mouse at 5 mg/kg, iv by LC-MS/MS analysis; parameters: dose 5 mg/kg, time infinity, route intravenous; settings: in vivo
[6] = MRT in C57BL/6J mouse at 5 mg/kg, iv by LC-MS/MS analysis; settings: in vivo
[7] = Apparent volume of distribution in C57BL/6J mouse at 5 mg/kg, iv by LC-MS/MS analysis; settings: in vivo, read-out: Vz
[8] = AUC (0 to infinity) in C57BL/6J mouse at 20 mg/kg, po via gavage by LC-MS/MS analysis; parameters: dose 20 mg/kg, route oral, time infinity; settings: in vivo
[9] = AUClast in C57BL/6J mouse at 5 mg/kg, iv by LC-MS/MS analysis; parameters: dose 5 mg/kg, route intravenous, time 0 - last; settings: in vivo
[10] = Cmax in C57BL/6J mouse at 20 mg/kg, po via gavage by LC-MS/MS analysis; parameters: dose 20 mg/kg, route oral; settings: in vivo
[11] = Plasma concentration in fasted C57BL/6J mouse at 30 mg/kg, sc after 45 mins
[12] = Plasma concentration in fasted C57BL/6J mouse at 50 mg/kg, po after 45 mins
[13] = Plasma concentration in CD-1 mouse at 50 mg/kg, po after 1.25 hrs
[14] = Clearance in C57BL/6J mouse at 5 mg/kg, iv by LC-MS/MS analysis; settings: in vivo
[15] = Half life in C57BL/6J mouse at 20 mg/kg, po via gavage by LC-MS/MS analysis; settings: in vivo
[16] = MRT in C57BL/6J mouse at 20 mg/kg, po via gavage by LC-MS/MS analysis; settings: in vivo
[17] = AUClast in C57BL/6J mouse at 20 mg/kg, po via gavage by LC-MS/MS analysis; parameters: dose 20 mg/kg, time 0 - last, route oral; settings: in vivo
[18] = Plasma concentration in C57BL/6J mouse at 50 mg/kg, po after 45 mins by LC-MS/MS analysis

Vd [1]: 4.44 L/kg | half-life [2]: 26.7 min | bioavailability [3]: 6.48% | Tmax [4]: 30 min | AUC(0-inf) [5]: 390 ng·h/mL | MRT [6]: 17 min | Vd [7]: 8.24 L/kg | AUC(0-inf) [8]: 148 ng·h/mL | AUC(0-t) [9]: 379 ng·h/mL | Cmax [10]: 68.1 ng/mL | concentration at 0.75 h [11]: 15800 nM | concentration at 0.75 h [12]: 1030 nM | concentration at 1.25 h [13]: 20 nM | clearance [14]: 214 mL/min/kg | half-life [15]: 164 min | MRT [16]: 82.2 min | AUC(0-t) [17]: 98.4 ng·h/mL | concentration at 0.75 h [18]: 1180 nM
Structure (SMILES): COc1ccc(SCc2cnc(SCc3c(F)cc(-c4nn[nH]n4)cc3F)n2-c2ccc(F)cc2)cc1OC
